Laboratory results taken from publication PMC12040169 (PLOS Biology, 2025).

Assay: in vitro
Settings: human, hela cells, % viability
With `CN(Cc1ccccc1)C(=O)[C@H]1C[C@@H](O)[C@H](O)[C@@H]2N=C(Nc3ccc(Cl)cc3)S[C@@H]21` [CBK288949] the viability at 28.5 h, 10 µM was 105%. For `COc1ccc(/C(N)=N/OC(=O)C(C)Oc2ccc(Br)cc2)cc1OC` (stereo not shown) [CBK266807], the viability at 28.5 h, 10 µM was 95.6%. In the case of `CCCc1cc(C(N)=O)c(NC(=O)c2sc3ccccc3c2Cl)s1` [CBK268178], the viability at 28.5 h, 10 µM is reported as 103%. `CC1(C)NC(=O)N(CC(O)Cn2c3ccccc3c3ccccc32)C1=O` (stereo not shown) [CBK304318] gave a viability at 28.5 h, 10 µM of 86.8%. In the case of `CN(C)S(=O)(=O)c1ccc(NC(=O)c2ccc(-c3ccccc3)cc2)cc1` [CBK267322], the viability at 28.5 h, 10 µM is reported as 104%. `COc1ccccc1CNC(=O)N[C@@H](CC(C)C)C(=O)O` [CBK286722] showed a viability at 28.5 h, 10 µM of 92.9%. Molecule `CC(C)Cn1cnc2c(c1=N)C(c1ccccc1)c1ccc(O)cc1O2` (stereo not shown) [CBK287864] has a viability at 28.5 h, 10 µM of 101%. `O=C(CSc1nc2ccccc2[nH]1)Nc1ccc(OC(F)(F)F)cc1` [CBK269711] gave a viability at 28.5 h, 10 µM of 104%. Work on `COc1ccccc1N(CC(=O)NC(C(C)C)C(C)C)S(=O)(=O)c1ccccc1` [CBK101384] yielded a viability at 28.5 h, 10 µM of 91.4%. Work on `Cc1cc(C)n(-c2cccc(CN3CCC(CO)C3)c2)n1` (stereo not shown) [CBK282928] yielded a viability at 28.5 h, 10 µM of 94.8%. Work on `Cc1ccc(-c2nnc3s/c(=C\c4ccc([N+](=O)[O-])cc4)c(=O)n23)cc1` [CBK264882] yielded a viability at 28.5 h, 10 µM of 101%. With `Cc1cc(C)n(CCCC(=O)N2CCC3(CC2)CC(=O)N(C)C3)n1` [CBK306905] the viability at 28.5 h, 10 µM was 90.5%. Molecule `N#CCCN(Cc1ccco1)C(=O)c1cccc(NC(=O)C2CC2)c1` [CBK304014] has a viability at 28.5 h, 10 µM of 99.5%. For `N#Cc1ccccc1N1C(=O)c2cccc([N+](=O)[O-])c2C1=O` [CBK115322], the viability at 28.5 h, 10 µM was 94.1%. Molecule `Cc1ccc(CNCCNCCO)s1` [CBK278168C] has a viability at 28.5 h, 10 µM of 108%. `COc1ccccc1-c1cccc(NCC(c2cccnc2)N(C)C)n1` (stereo not shown) [CBK037770] gave a viability at 28.5 h, 10 µM of 103%. For `CC(C)CN(Cc1ccc2c(c1)OCO2)C(=O)NCc1ccc2c(c1)OCO2` [CBK159071], the viability at 28.5 h, 10 µM was 96.4%. Molecule `COCCN(Cc1cnn(C)c1)C(=O)Nc1cccc2nc(C)ccc12` [CBK306529] has a viability at 28.5 h, 10 µM of 106%. For `O=C(CNC(=O)c1ccccc1)N/N=C/c1ccc(Br)cc1` [CBK260957], the viability at 28.5 h, 10 µM was 103%. With `CS(=O)(=O)c1ccc(-c2ccc(C(=O)NCc3cccc(C(F)(F)F)c3)cn2)cc1` [CBK158874] the viability at 28.5 h, 10 µM was 91.4%. `CN(CC(=O)NCc1ccccn1)S(=O)(=O)c1ccc(Br)cc1` [CBK265127] gave a viability at 28.5 h, 10 µM of 94.4%. `CC1CCN(S(=O)(=O)c2cccc3c(S(=O)(=O)N4CCC(C)CC4)cccc23)CC1` [CBK262071] showed a viability at 28.5 h, 10 µM of 98.2%. `COCCNc1nc(-c2ccccc2)ccc1C(=O)Nc1cccc(OC)c1` [CBK105886] showed a viability at 28.5 h, 10 µM of 98.1%. For `CN(c1ncccc1C#N)C1CCN(C(=O)OCc2ccccc2)CC1` [CBK023869C], the viability at 28.5 h, 10 µM was 84.1%. In the case of `COc1ccc(S(=O)(=O)Nc2cc(C(=O)O)ccc2C)cc1NC(C)=O` [CBK296946], the viability at 28.5 h, 10 µM is reported as 93.4%. With `CS(=O)(=O)c1ccc(-c2ccc3c(c2)COC(C2CCN(C(=O)c4ccccc4O)CC2)O3)cc1` (stereo not shown) [CBK158682] the viability at 28.5 h, 10 µM was 85.3%. Molecule `Cc1ccc(S(=O)(=O)NCCCO)cc1C(=O)O` [CBK266610] has a viability at 28.5 h, 10 µM of 89.7%. `COCc1ccc(C(=O)N2CCC(Cc3ccccc3-c3cccs3)(C(N)=O)CC2)cc1` [CBK286276] gave a viability at 28.5 h, 10 µM of 102%. In the case of `CC(C)NC(=O)[C@H]1O[C@H](CCN2CCN(c3ccc(F)cc3)CC2)CC[C@@H]1O` [CBK288721], the viability at 28.5 h, 10 µM is reported as 98.8%. Molecule `CN(C)c1cccc(Nc2cc(-c3cccc([N+](=O)[O-])c3)ncn2)c1` [CBK091012] has a viability at 28.5 h, 10 µM of 102%. Work on `CC(Oc1ccccc1)c1nnc(SCC(=O)Nc2cc(Cl)c(Cl)cc2Cl)n1C` (stereo not shown) [CBK266262] yielded a viability at 28.5 h, 10 µM of 108%. Work on `O=C(c1ccccc1Cl)c1cc(Cl)ccc1-n1ccnc1` [CBK005151] yielded a viability at 28.5 h, 10 µM of 95.2%. For `Cc1cc(C)n(-c2ccccc2O)n1` [CBK026493], the viability at 28.5 h, 10 µM was 102%. Molecule `Cc1cc(C[C@@H]2COC[C@H]2NCCc2ccccc2)on1` [CBK284882] has a viability at 28.5 h, 10 µM of 95.5%.
